ChEMBL document CHEMBL1667854, “6''-Azido-6''-deoxy-UDP-N-acetylglucosamine as a glycosyltransferase substrate” (Bioorg Med Chem Lett, 2011)
Activity calls are given as the source filed them. The calls are words filed in the database; no cut-off is given here.

Biological target: T1, UDP-N-acetylglucosamine--peptide N-acetylglucosaminyltransferase 110 kDa subunit (Homo sapiens) (UniProt O15294)
T1 sequence (whole entry): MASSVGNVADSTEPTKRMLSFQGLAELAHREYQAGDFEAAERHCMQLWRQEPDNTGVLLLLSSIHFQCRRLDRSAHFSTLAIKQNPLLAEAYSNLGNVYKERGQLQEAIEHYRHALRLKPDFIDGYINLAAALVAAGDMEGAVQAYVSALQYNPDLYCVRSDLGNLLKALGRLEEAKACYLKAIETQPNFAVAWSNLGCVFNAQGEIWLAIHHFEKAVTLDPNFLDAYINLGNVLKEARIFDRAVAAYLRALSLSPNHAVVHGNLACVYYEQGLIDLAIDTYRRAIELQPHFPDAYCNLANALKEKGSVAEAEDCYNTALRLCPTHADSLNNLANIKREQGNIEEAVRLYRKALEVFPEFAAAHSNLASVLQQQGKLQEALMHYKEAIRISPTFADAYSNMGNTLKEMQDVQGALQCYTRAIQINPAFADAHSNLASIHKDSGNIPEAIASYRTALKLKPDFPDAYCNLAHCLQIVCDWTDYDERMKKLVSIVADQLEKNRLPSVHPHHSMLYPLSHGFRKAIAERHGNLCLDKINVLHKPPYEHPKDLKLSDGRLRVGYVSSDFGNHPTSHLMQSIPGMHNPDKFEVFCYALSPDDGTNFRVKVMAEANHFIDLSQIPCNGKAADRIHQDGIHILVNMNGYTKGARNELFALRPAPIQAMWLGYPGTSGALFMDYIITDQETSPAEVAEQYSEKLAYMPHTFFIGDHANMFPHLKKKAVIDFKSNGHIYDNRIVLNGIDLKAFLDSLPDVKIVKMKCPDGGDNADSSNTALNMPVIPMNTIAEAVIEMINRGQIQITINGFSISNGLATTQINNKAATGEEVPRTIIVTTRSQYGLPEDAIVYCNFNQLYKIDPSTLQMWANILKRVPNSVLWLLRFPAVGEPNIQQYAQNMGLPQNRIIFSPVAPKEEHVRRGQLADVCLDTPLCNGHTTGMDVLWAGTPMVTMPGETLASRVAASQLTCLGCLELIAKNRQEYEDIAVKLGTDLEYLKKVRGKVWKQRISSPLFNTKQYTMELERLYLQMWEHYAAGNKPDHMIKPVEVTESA
Experiment: Activity at human OGT by Western blot analysis

SMILES: CC(=O)N[C@@H]1[C@@H](O)[C@H](O)[C@@H](CN=[N+]=[N-])O[C@@H]1O
- Activity: Active

SMILES: CC(=O)N[C@H]1[C@@H](OP(=O)(O)OP(=O)(O)OC[C@H]2O[C@@H](n3ccc(=O)[nH]c3=O)[C@H](O)[C@@H]2O)O[C@H](CN=[N+]=[N-])[C@@H](O)[C@@H]1O
- Activity: Active
